Results reported in patent publication US20240336642A1 (The General Hospital Corporation, priority 2021, published 2024).

Key:
[1] = Metabolic stability of exemplified compounds (Example 4); assay type: in vitro ADME
[2] = Solubility in formulation vehicles (Solutol HS-15/PEG400, Captisol); assay type: physicochemical; conditions: 10% Solutol/90% PEG400
Experimental: Combinations of Solutol HS-15 (also known as Kolliphor HS-15) with PEG400 provided a good vehicle to solubilize the tested compounds. Specifically, 10% Solutol/90% PEG400 was used to prepare 20 mg/ml solutions of compound 1, compound 44, and compound 32. 10% Solutol/15% H2O/[…] led to 10 mg/ml solutions of the tested compounds.
20 mg/ml were obtained in 20% Captisol, allowing for intravenous delivery in the mouse stroke model.

Human 12/15-LOX E. coli = Human 12/15-LOX E. coli (Homo sapiens (Human), UniProt P16050); experiment: Human 12/15-LOX E. coli IC50; assay type: biochemical
[3] = test system: experimental stroke model in mice (MCAO); experiment: Mouse stroke model, filament middle cerebral artery occlusion (MCAO), infarct size; assay type: in vivo
Experimental: Studies were carried out in experimental stroke model in mice, using the filament model of middle cerebral artery occlusion (MCAO). For intraperitoneal delivery, compounds were dissolved in DMSO. A number of exemplified compounds were able to reduce infarct size when given at a dosage of 40 mg/kg.
40 mg/kg cmpd. 1 were given i.p. at time of reperfusion. Infarct size was measured at 24 hours after 60 minutes MCAO.
MCAO (Experimental Middle Cerebral Artery Ischemia and Functional Recovery) experiment: 40 mg/kg of compound delivered intraperitoneally 2 h post reperfusion, 60 minutes MCAO, sacrifice at 24 h, infarct size determined by TTC staining.

Sequence of Human 12/15-LOX E. coli (P16050 whole entry): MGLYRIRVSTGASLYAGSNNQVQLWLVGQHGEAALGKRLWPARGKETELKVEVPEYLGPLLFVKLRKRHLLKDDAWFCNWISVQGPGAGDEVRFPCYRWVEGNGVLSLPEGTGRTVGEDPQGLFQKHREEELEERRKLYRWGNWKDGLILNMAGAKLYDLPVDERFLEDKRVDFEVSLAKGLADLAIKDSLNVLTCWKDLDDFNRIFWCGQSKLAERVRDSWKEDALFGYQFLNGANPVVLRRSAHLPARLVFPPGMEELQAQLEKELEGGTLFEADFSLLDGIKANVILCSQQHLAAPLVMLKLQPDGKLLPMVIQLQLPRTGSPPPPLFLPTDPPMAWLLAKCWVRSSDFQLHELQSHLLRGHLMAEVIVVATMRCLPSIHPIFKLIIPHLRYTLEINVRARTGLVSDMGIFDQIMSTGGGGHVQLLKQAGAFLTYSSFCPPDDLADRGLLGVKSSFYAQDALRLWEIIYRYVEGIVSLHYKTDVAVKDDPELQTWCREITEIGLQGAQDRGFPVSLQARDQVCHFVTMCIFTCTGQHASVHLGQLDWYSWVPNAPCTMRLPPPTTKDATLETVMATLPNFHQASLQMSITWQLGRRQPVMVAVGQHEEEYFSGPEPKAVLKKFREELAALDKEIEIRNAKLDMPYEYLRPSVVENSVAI

With `CNc1oc(-c2cc(Cl)cc(Cl)c2Cl)nc1C#N` [Compound 1, 5-(methylamino)-2-(2,3,5-trichlorophenyl) oxazole-4-carbonitrile] the “Extr (EH)” value ([1]; Human liver microsomes) was “** (“**” 50-100%)”, the microsomal CLint ([1]; Human liver microsomes) was 20 to 100 µL/min/mg and the “Extr (EH)” value ([1]; Mouse liver microsomes) was “** (“**” 50-100%)”. The microsomal CLint ([1]; Mouse liver microsomes) was 20 to 100 µL/min/mg, the “Extr (EH)” value ([1]; Rat liver microsomes) was “* (“*” <50%)” and the microsomal CLint ([1]; Rat liver microsomes) was < 20 µL/min/mg. For the same compound, the solution concentration achieved [2] was 20 mg/mL, the “Human 12/15-LOX E. coli % max” value (Human 12/15-LOX E. coli) was 88% and the IC50 (Human 12/15-LOX E. coli) was 110 nM. For the same compound, the infarct size reduction ([3]; 20 mg/kg i.v. 2 hours post reperfusion) was 25.8%, the infarct size reduction ([3]; 40 mg/kg i.v. in 10% Solutol/90% PEG400, 2 h after reperfusion, 24 h) was 34.1% and the infarct size reduction ([3]; female mice, 40 mg/kg i.p. at time of reperfusion, 24 h after 60 minutes MCAO) was 37.2%. For the same compound, the infarct size reduction ([3]; male mice, 40 mg/kg i.p. at time of reperfusion, 24 h after 60 minutes MCAO) was 33.4%.
